Reference: article PMC5218480 (PLoS ONE, 2017)

Tested on: MV-4-11 cells
Assay: Gene expression microarray analysis (Affymetrix PrimeView) and GSEA
Format: cell-based, human
Set-up: RFU PODN (11730768_x_at) / Fold change /veh PODN (11730768_x_at) / RFU LINC00158 (11744669_a_at) / Fold change /veh LINC00158 (11744669_a_at) / RFU DUSP10 (11751237_a_at) / Fold change /veh DUSP10 (11751237_a_at) / RFU ID3 (11757404_x_at) / Fold change /veh ID3 (11757404_x_at) / RFU PLEKHG5 (11737974_s_at) / Fold change /veh PLEKHG5 (11737974_s_at) / RFU LRRC4B (11730491_at) / Fold change /veh LRRC4B (11730491_at) / RFU GIMAP4 (11747438_a_at) / Fold change /veh GIMAP4 (11747438_a_at) / RFU KRT8 (11758183_x_at) / Fold change /veh KRT8 (11758183_x_at) / RFU CNN1 (11734310_a_at) / Fold change /veh CNN1 (11734310_a_at) / RFU VPS37D (11726825_at) / Fold change /veh VPS37D (11726825_at) / RFU C10orf10 (11716522_x_at) / Fold change /veh C10orf10 (11716522_x_at) / RFU KIR2DL2 /// KIR2DL4 /// KIR2DL5A /// KIR2DL5B /// KIR2DS1 /// KIR2DS2 /// KIR2DS3 /// KIR2DS4 /// KIR3DL3 /// KIR3DL3 /// KIR3DS1 (11738374_at) / Fold change /veh KIR2DL2 /// KIR2DL4 /// KIR2DL5A /// KIR2DL5B /// KIR2DS1 /// KIR2DS2 /// KIR2DS3 /// KIR2DS4 /// KIR3DL3 /// KIR3DL3 /// KIR3DS1 (11738374_at) / RFU C1QL1 (11718748_at) / Fold change /veh C1QL1 (11718748_at) / RFU TMPRSS4 (11747572_a_at) / Fold change /veh TMPRSS4 (11747572_a_at) / RFU HAMP (11756126_x_at) / Fold change /veh HAMP (11756126_x_at) / RFU RNFT2 (11725882_a_at) / Fold change /veh RNFT2 (11725882_a_at) / RFU NR4A2 (11747474_a_at) / Fold change /veh NR4A2 (11747474_a_at) / RFU ABCC12 (11746883_a_at) / Fold change /veh ABCC12 (11746883_a_at) / RFU TMEM136 (11760407_x_at) / Fold change /veh TMEM136 (11760407_x_at) / RFU CLDN22 /// WWC2 (11732394_at) / Fold change /veh CLDN22 /// WWC2 (11732394_at) / RFU HLA-DPB1 (11760878_x_at) / Fold change /veh HLA-DPB1 (11760878_x_at) / RFU SPINT1 (11716480_a_at) / Fold change /veh SPINT1 (11716480_a_at) / RFU GAP43 (11754022_s_at) / Fold change /veh GAP43 (11754022_s_at) / RFU A4GNT (11735810_at) / Fold change /veh A4GNT (11735810_at) / RFU PRB3 (11715151_x_at) / Fold change /veh PRB3 (11715151_x_at) / RFU TUBB4B (11761932_at) / Fold change /veh TUBB4B (11761932_at) / RFU CAPN14 (11732068_a_at) / Fold change /veh CAPN14 (11732068_a_at) / RFU TMCC2 (11721928_a_at) / Fold change /veh TMCC2 (11721928_a_at) / RFU IRGQ (11745062_a_at) / Fold change /veh IRGQ (11745062_a_at) / RFU FAM174B (11720279_a_at) / Fold change /veh FAM174B (11720279_a_at) / RFU TMPRSS4 (11748680_a_at) / Fold change /veh TMPRSS4 (11748680_a_at) / RFU FAM212B (11763350_a_at) / Fold change /veh FAM212B (11763350_a_at) / RFU PLEKHG5 (11743358_a_at) / Fold change /veh PLEKHG5 (11743358_a_at) / RFU ZSCAN30 (11745921_a_at) / Fold change /veh ZSCAN30 (11745921_a_at) / RFU CMKLR1 (11741424_a_at) / Fold change /veh CMKLR1 (11741424_a_at) / RFU LOC101060620 /// MAPK8IP1 (11723275_at) / Fold change /veh LOC101060620 /// MAPK8IP1 (11723275_at) / RFU SPTSSB (11747773_x_at) / Fold change /veh SPTSSB (11747773_x_at) / RFU PRSS12 (11739890_at) / Fold change /veh PRSS12 (11739890_at) / RFU BIN1 (11741810_x_at) / Fold change /veh BIN1 (11741810_x_at) / RFU WNT11 (11732464_a_at) / Fold change /veh WNT11 (11732464_a_at) / RFU C10orf10 (11716521_a_at) / Fold change /veh C10orf10 (11716521_a_at) / RFU C5orf56 (11738089_at) / Fold change /veh C5orf56 (11738089_at) / RFU CYB561 (11721691_x_at) / Fold change /veh CYB561 (11721691_x_at) / RFU ANKRD19P (11752326_a_at) / Fold change /veh ANKRD19P (11752326_a_at) / RFU OR2T12 /// OR2T33 /// OR2T8 (11738714_s_at) / Fold change /veh OR2T12 /// OR2T33 /// OR2T8 (11738714_s_at) / RFU VCAN (11748164_a_at) / Fold change /veh VCAN (11748164_a_at) / RFU JSRP1 (11732532_at) / Fold change /veh JSRP1 (11732532_at) / RFU KRTAP10-11 (11738290_x_at) / Fold change /veh KRTAP10-11 (11738290_x_at) / RFU MYO3A (11730013_a_at) / Fold change /veh MYO3A (11730013_a_at) / RFU EBF3 (11725865_a_at) / Fold change /veh EBF3 (11725865_a_at) / RFU CAMK2N1 (11719241_x_at) / Fold change /veh CAMK2N1 (11719241_x_at) / RFU C5orf56 (11738088_a_at) / Fold change /veh C5orf56 (11738088_a_at) / RFU OLFML3 (11715873_a_at) / Fold change /veh OLFML3 (11715873_a_at) / RFU LOC100653217 /// NTM (11731650_a_at) / Fold change /veh LOC100653217 /// NTM (11731650_a_at) / RFU MAPK11 (11762145_a_at) / Fold change /veh MAPK11 (11762145_a_at) / RFU FIZ1 (11724087_x_at) / Fold change /veh FIZ1 (11724087_x_at) / RFU OASL (11726364_x_at) / Fold change /veh OASL (11726364_x_at) / RFU SOX15 (11748057_x_at) / Fold change /veh SOX15 (11748057_x_at) / RFU CD79A (11719716_a_at) / Fold change /veh CD79A (11719716_a_at) / RFU HIST1H1D (11736915_at) / Fold change /veh HIST1H1D (11736915_at) / RFU CASKIN2 (11723855_a_at) / Fold change /veh CASKIN2 (11723855_a_at) / RFU LOC730098 (11760151_x_at) / Fold change /veh LOC730098 (11760151_x_at) / RFU OR4N2 (11742367_at) / Fold change /veh OR4N2 (11742367_at) / RFU PRRT2 (11749266_a_at) / Fold change /veh PRRT2 (11749266_a_at) / RFU SNX32 (11753110_a_at) / Fold change /veh SNX32 (11753110_a_at) / RFU CDHR5 (11726645_a_at) / Fold change /veh CDHR5 (11726645_a_at) / RFU RCAN1 (11760418_a_at) / Fold change /veh RCAN1 (11760418_a_at) / RFU FAM167A (11723789_a_at) / Fold change /veh FAM167A (11723789_a_at) / RFU FAM26E (11764081_at) / Fold change /veh FAM26E (11764081_at) / RFU ISYNA1 (11749810_s_at) / Fold change /veh ISYNA1 (11749810_s_at) / RFU ACY1 (11761880_at) / Fold change /veh ACY1 (11761880_at) / RFU 11764098_at / Fold change /veh 11764098_at / RFU SAMD14 (11745864_x_at) / Fold change /veh SAMD14 (11745864_x_at) / RFU NPB (11741838_a_at) / Fold change /veh NPB (11741838_a_at) / RFU TMPRSS6 (11731388_a_at) / Fold change /veh TMPRSS6 (11731388_a_at) / RFU KRTAP10-2 (11738614_at) / Fold change /veh KRTAP10-2 (11738614_at) / RFU ARHGAP8 /// PRR5-ARHGAP8 (11727945_x_at) / Fold change /veh ARHGAP8 /// PRR5-ARHGAP8 (11727945_x_at) / RFU KRTAP5-7 /// NADSYN1 (11734609_at) / Fold change /veh KRTAP5-7 /// NADSYN1 (11734609_at) / RFU RASL12 (11751679_a_at) / Fold change /veh RASL12 (11751679_a_at) / RFU CDKN2B (11736163_a_at) / Fold change /veh CDKN2B (11736163_a_at) / RFU PRF1 (11729649_at) / Fold change /veh PRF1 (11729649_at) / RFU, ZNF638 /// ZNF638-IT1 / Fold change vs veh, ZNF638 /// ZNF638-IT1 / RFU, PANK3 / Fold change vs veh, PANK3 / RFU, SH3YL1 / Fold change vs veh, SH3YL1 / RFU, ZEB2 / Fold change vs veh, ZEB2 / RFU, NRIP1 / Fold change vs veh, NRIP1 / RFU, PTTG1IP / Fold change vs veh, PTTG1IP / RFU, CAPN2 / Fold change vs veh, CAPN2 / RFU, MED14 / Fold change vs veh, MED14 / RFU, SNORA58 / Fold change vs veh, SNORA58 / RFU, C1orf63 / Fold change vs veh, C1orf63 / RFU, LRRFIP1 / Fold change vs veh, LRRFIP1 / RFU, NDUFAF7 / Fold change vs veh, NDUFAF7 / RFU, SLC12A2 / Fold change vs veh, SLC12A2 / RFU, IBTK / Fold change vs veh, IBTK / RFU, ESF1 / Fold change vs veh, ESF1 / Fold change vs veh, TMEM50B / RFU, TAOK1 / Fold change vs veh, TAOK1 / RFU, ACBD3 / Fold change vs veh, ACBD3 / RFU, TMA16 / Fold change vs veh, TMA16 / RFU, RWDD3 / Fold change vs veh, RWDD3 / RFU, BCAT1 / Fold change vs veh, BCAT1 / RFU, EDEM3 / Fold change vs veh, EDEM3 / RFU, TMEM33 / Fold change vs veh, TMEM33 / RFU, WDR75 / Fold change vs veh, WDR75 / RFU, AHCTF1 / Fold change vs veh, AHCTF1 / RFU, TFRC / Fold change vs veh, TFRC / RFU, ZDHHC17 / Fold change vs veh, ZDHHC17 / RFU, NOM1 / Fold change vs veh, NOM1 / RFU, ARL8B / Fold change vs veh, ARL8B / RFU, ZBTB11 / Fold change vs veh, ZBTB11 / RFU, TAMM41 / Fold change vs veh, TAMM41 / RFU, KIAA1704 /// LOC100996395 / Fold change vs veh, KIAA1704 /// LOC100996395 / RFU, ING1 / Fold change vs veh, ING1 / RFU, TRMT61B / Fold change vs veh, TRMT61B / RFU, FUBP3 / Fold change vs veh, FUBP3 / RFU, TP53 / Fold change vs veh, TP53 / RFU, TNKS2 / Fold change vs veh, TNKS2 / RFU, ZFP14 / Fold change vs veh, ZFP14 / RFU, ACTR2 / Fold change vs veh, ACTR2 / RFU, PPP3R1 / Fold change vs veh, PPP3R1 / RFU, PIK3R1 / Fold change vs veh, PIK3R1 / RFU, HNRNPA1 / Fold change vs veh, HNRNPA1 / RFU, RNF170 / Fold change vs veh, RNF170 / RFU, ZNF28 / Fold change vs veh, ZNF28 / RFU, RNGTT / Fold change vs veh, RNGTT / RFU, OGT / Fold change vs veh, OGT / RFU, BRD1 / Fold change vs veh, BRD1 / RFU, MARS / Fold change vs veh, MARS / RFU, ZNF655 / Fold change vs veh, ZNF655 / RFU, FAHD1 / Fold change vs veh, FAHD1 / RFU, BDP1 / Fold change vs veh, BDP1 / RFU, LRRCC1 / Fold change vs veh, LRRCC1 / RFU, ARID1A / Fold change vs veh, ARID1A / RFU, ZNF146 / Fold change vs veh, ZNF146 / RFU, ZNF330 / Fold change vs veh, ZNF330 / RFU, GPN3 / Fold change vs veh, GPN3 / RFU, C9orf123 / Fold change vs veh, C9orf123 / RFU, N4BP2L2 / Fold change vs veh, N4BP2L2 / RFU, ARFIP1 / Fold change vs veh, ARFIP1 / RFU, FAM179B / Fold change vs veh, FAM179B / RFU, BCL10 / Fold change vs veh, BCL10 / RFU, UHRF1BP1L / Fold change vs veh, UHRF1BP1L / RFU, BET1 / Fold change vs veh, BET1 / RFU, CNOT2 / Fold change vs veh, CNOT2 / RFU, ZNF268 / Fold change vs veh, ZNF268 / Fold change vs veh, ZNF507 / RFU, DGCR2 / Fold change vs veh, DGCR2 / RFU, WDSUB1 / Fold change vs veh, WDSUB1 / Fold change vs veh, HSP90B1 /// MIR3652 / RFU, ADSS / Fold change vs veh, ADSS / RFU, GK / Fold change vs veh, GK / RFU, ZNF148 / Fold change vs veh, ZNF148 / RFU, TAF9 / Fold change vs veh, TAF9 / RFU, SLC1A5 / Fold change vs veh, SLC1A5 / RFU, SLMO2 / Fold change vs veh, SLMO2 / RFU, ABCC4 / Fold change vs veh, ABCC4 / RFU, LOC101060439 /// RAP1B / Fold change vs veh, LOC101060439 /// RAP1B / RFU, RFX7 / Fold change vs veh, RFX7 / RFU, GTPBP10 / Fold change vs veh, GTPBP10 / RFU, CNEP1R1 / Fold change vs veh, CNEP1R1 / RFU, BIVM-ERCC5 /// ERCC5 / Fold change vs veh, BIVM-ERCC5 /// ERCC5 / RFU, ILF3 / Fold change vs veh, ILF3 / RFU 11762660_at / Fold change /veh 11762660_at / RFU VCAN (11757783_s_at) / Fold change /veh VCAN (11757783_s_at) / RFU DDX43 (11728927_at) / Fold change /veh DDX43 (11728927_at) / RFU KRT8 (11758188_x_at) / Fold change /veh KRT8 (11758188_x_at) / RFU NKD1 (11759106_at) / Fold change /veh NKD1 (11759106_at) / RFU SRD5A1 (11742802_a_at) / Fold change /veh SRD5A1 (11742802_a_at) / RFU TPSAB1 /// TPSB2 (11721975_s_at) / Fold change /veh TPSAB1 /// TPSB2 (11721975_s_at) / RFU GSTM3 (11746129_a_at) / Fold change /veh GSTM3 (11746129_a_at) / RFU IL23R (11737362_x_at) / Fold change /veh IL23R (11737362_x_at) / RFU TMEM51 (11727254_a_at) / Fold change /veh TMEM51 (11727254_a_at) / RFU PIWIL2 (11732686_x_at) / Fold change /veh PIWIL2 (11732686_x_at) / RFU ORM1 (11744905_x_at) / Fold change /veh ORM1 (11744905_x_at) / RFU CCDC152 (11743942_at) / Fold change /veh CCDC152 (11743942_at) / RFU ECM1 (11717891_a_at) / Fold change /veh ECM1 (11717891_a_at) / RFU IL23R (11748794_a_at) / Fold change /veh IL23R (11748794_a_at) / RFU TNFAIP8L3 (11732012_x_at) / Fold change /veh TNFAIP8L3 (11732012_x_at) / RFU MBOAT4 (11741988_at) / Fold change /veh MBOAT4 (11741988_at) / RFU 11764193_at / Fold change /veh 11764193_at / RFU TMEM53 (11763286_at) / Fold change /veh TMEM53 (11763286_at) / RFU MAGEB2 (11727129_at) / Fold change /veh MAGEB2 (11727129_at) / RFU TMEM200A (11744735_a_at) / Fold change /veh TMEM200A (11744735_a_at) / RFU CCDC152 (11751479_a_at) / Fold change /veh CCDC152 (11751479_a_at) / RFU FAM211A (11726209_a_at) / Fold change /veh FAM211A (11726209_a_at) / RFU RGS16 (11746705_a_at) / Fold change /veh RGS16 (11746705_a_at) / RFU VCAN (11755009_s_at) / Fold change /veh VCAN (11755009_s_at) / RFU RHOB (11743442_s_at) / Fold change /veh RHOB (11743442_s_at) / RFU RGS16 (11720943_a_at) / Fold change /veh RGS16 (11720943_a_at) / RFU RGS16 (11720944_at) / Fold change /veh RGS16 (11720944_at) / RFU, VPS4B / Fold change vs veh, VPS4B / RFU, CREB1 / Fold change vs veh, CREB1 / RFU, DNAJC13 / Fold change vs veh, DNAJC13 / RFU, GNAQ / Fold change vs veh, GNAQ / RFU, CDK5R1 / Fold change vs veh, CDK5R1 / RFU, ZRANB3 / Fold change vs veh, ZRANB3 / RFU, CUL4A / Fold change vs veh, CUL4A / RFU, CCNY / Fold change vs veh, CCNY / RFU, UFL1 / Fold change vs veh, UFL1 / RFU, COG3 / Fold change vs veh, COG3 / RFU, DIAPH2 / Fold change vs veh, DIAPH2 / RFU, SKA2 / Fold change vs veh, SKA2 / RFU, AFF3 / Fold change vs veh, AFF3 / RFU, LMF1 / Fold change vs veh, LMF1 / RFU, IPO11 / Fold change vs veh, IPO11 / RFU, DFFB / Fold change vs veh, DFFB / RFU, FOXP1 / Fold change vs veh, FOXP1 / RFU, CARD8 / Fold change vs veh, CARD8 / RFU, STRN3 / Fold change vs veh, STRN3 / RFU, ADK / Fold change vs veh, ADK / RFU, RASSF2 / Fold change vs veh, RASSF2 / RFU, WIPF1 / Fold change vs veh, WIPF1 / RFU, LARP1B / Fold change vs veh, LARP1B / RFU, RASA1 / Fold change vs veh, RASA1 / RFU, RB1 / Fold change vs veh, RB1 / RFU, PPFIA1 / Fold change vs veh, PPFIA1 / RFU, MAT2A / Fold change vs veh, MAT2A / RFU, CCT5 / Fold change vs veh, CCT5 / RFU, WDR92 / Fold change vs veh, WDR92 / RFU, CUX1 / Fold change vs veh, CUX1 / RFU, TTC7A / Fold change vs veh, TTC7A / RFU, TMEM135 / Fold change vs veh, TMEM135 / RFU, DEPTOR / Fold change vs veh, DEPTOR / RFU, CPM / Fold change vs veh, CPM / RFU, DNAJB6 / Fold change vs veh, DNAJB6 / RFU, CACNA2D3 / Fold change vs veh, CACNA2D3 / RFU, DTX4 / Fold change vs veh, DTX4 / RFU, TFCP2 / Fold change vs veh, TFCP2 / RFU, GMCL1 /// GMCL1P1 / Fold change vs veh, GMCL1 /// GMCL1P1 / RFU, AEBP2 / Fold change vs veh, AEBP2 / RFU, SNHG1 /// SNORD22 /// SNORD25 /// SNORD26 /// SNORD27 /// SNORD28 /// SNORD29 /// SNORD31 / Fold change vs veh, SNHG1 /// SNORD22 /// SNORD25 /// SNORD26 /// SNORD27 /// SNORD28 /// SNORD29 /// SNORD31 / Fold change (Aza/veh), C12orf56 (ProbeSet 11735607_a_at) / Fold change (ACY-1035/veh), C12orf56 (ProbeSet 11735607_a_at) / Fold change (Aza/veh), FGFR1OP (ProbeSet 11751329_s_at) / Fold change (ACY-1035/veh), FGFR1OP (ProbeSet 11751329_s_at) / Fold change (Aza/veh), VPS36 (ProbeSet 11739960_a_at) / Fold change (ACY-1035/veh), VPS36 (ProbeSet 11739960_a_at) / RFU SYPL1 (11715823_x_at) / Fold change /veh SYPL1 (11715823_x_at) / RFU IGFBP7 (11715501_s_at) / Fold change /veh IGFBP7 (11715501_s_at) / RFU REEP3 (11722064_at) / Fold change /veh REEP3 (11722064_at) / RFU IGLL1 (11728026_x_at) / Fold change /veh IGLL1 (11728026_x_at): dose or concentration left out as unconfirmed
Conditions: MV-4-11 cells, 48 hours

`Nc1ccc(-c2cccs2)cc1NC(=O)c1ccc2c(c1)cc(C1CC1)n2CCN1CCOCC1` [ACY-1035] was tested. Which “RFU HIST1H1D (11736915_at)” value did it give?
Its value is 13.65 RFU.
